Test: in vitro
Details: human, hela cells, % viability

Compound `O=S(=O)(Nc1cc(O[C@@H]2CCNC2)c2occc2c1)c1ccccc1Br` [CBK200020C] has a viability at 28.5 h, 10 µM of 89.6%.

Compound `O=S(=O)(c1ccccc1)c1cn2ccnc2c(N2CCNCC2)n1` [CBK200021T] has a viability at 28.5 h, 10 µM of 98.3%.

Work on `O=C(O)c1ccc(NS(=O)(=O)c2cccc([N+](=O)[O-])c2)cc1O` [CBK200022] yielded a viability at 28.5 h, 10 µM of 84.8%.

For `CC(C)(C)OC(=O)Nc1cc(Cl)ccc1C(=O)O` [CBK200024], the viability at 28.5 h, 10 µM was 103%.

With `O=S(=O)(Nc1nc(-c2c(F)cccc2Cl)cs1)c1cc(Cl)c(Cl)s1` [CBK200025] the viability at 28.5 h, 10 µM was 92.8%.

Work on `Cc1cc(Br)ccc1S(=O)(=O)Nc1nc(-c2c(F)cccc2Cl)cs1` [CBK200026] yielded a viability at 28.5 h, 10 µM of 95.6%.

Compound `CCOC(=O)Cc1csc(NS(=O)(=O)c2ccc(Br)cc2C)n1` [CBK200027] has a viability at 28.5 h, 10 µM of 96.2%.

`O=S(=O)(Nc1nc(-c2ccccc2Cl)cs1)c1sc(Cl)cc1Br` [CBK200028] showed a viability at 28.5 h, 10 µM of 103%.

Compound `O=S(=O)(Nc1nc(-c2sccc2Cl)cs1)c1cc(Br)c(Cl)s1` [CBK200030] has a viability at 28.5 h, 10 µM of 107%.

Compound `COc1ccc(F)cc1-c1ccc(S(=O)(=O)Nc2nc(CC(=O)N3CCOCC3)cs2)cc1` [CBK200031] has a viability at 28.5 h, 10 µM of 88%.

Compound `O=C(Cc1csc(NS(=O)(=O)c2ccc(-c3cccc([N+](=O)[O-])c3)cc2)n1)N1CCOCC1` [CBK200032] has a viability at 28.5 h, 10 µM of 110%.

In the case of `Cc1cc(Cl)cc(Cl)c1S(=O)(=O)Nc1nc(-c2cccnc2)cs1` [CBK200035], the viability at 28.5 h, 10 µM is reported as 105%.

Compound `C=CCN(C(=S)NCc1ccc2c(c1)OCO2)C1CCCCC1` [CBK200037] has a viability at 28.5 h, 10 µM of 97.9%.

`O=C1c2ccccc2C(=O)c2c1cccc2S(=O)(=O)N1CCN(C(=O)C2CCCO2)CC1` (stereo not shown) [CBK200038] showed a viability at 28.5 h, 10 µM of 40.5%.

Work on `O=S(=O)(c1ccc(OC(F)(F)F)cc1)N1CCN(Cc2ccc3c(c2)OCO3)CC1` [CBK200040] yielded a viability at 28.5 h, 10 µM of 82.5%.

With `COC(=O)c1sccc1NS(=O)(=O)c1ccc(C(F)(F)F)cc1` [CBK200041] the viability at 28.5 h, 10 µM was 95.5%.

Compound `COC[C@@H]1CCCN1S(=O)(=O)c1ccc(C(C)C)cc1` [CBK200045] has a viability at 28.5 h, 10 µM of 110%.

Work on `O=[N+]([O-])c1ccc(S(=O)(=O)Nc2nnc(C3CCCCC3)s2)cc1` [CBK200049] yielded a viability at 28.5 h, 10 µM of 94.8%.

Compound `CCc1nnc(NS(=O)(=O)c2ccc(NCc3cc(Cl)ccc3O)cc2)s1` [CBK200051] has a viability at 28.5 h, 10 µM of 100%.

Compound `Cc1c(Cl)cccc1S(=O)(=O)Nc1nc(CSc2ccccn2)ns1` [CBK200054] has a viability at 28.5 h, 10 µM of 97.2%.

Compound `O=C(OCCC1SC(NC2CC3C=CC2C3)=NC1=O)c1ccc(Cl)c(Cl)c1` (stereo not shown) [CBK200056T] has a viability at 28.5 h, 10 µM of 87.1%.

For `O=C(OCCC1SC(NC2CC3C=CC2C3)=NC1=O)c1c(F)cccc1F` (stereo not shown) [CBK200057T], the viability at 28.5 h, 10 µM was 89.7%.

`O=C(OCCC1SC(NC2CC3C=CC2C3)=NC1=O)c1cc(F)ccc1F` (stereo not shown) [CBK200059T] gave a viability at 28.5 h, 10 µM of 92.2%.

With `O=C(NCCC1SC(NC2CC3C=CC2C3)=NC1=O)c1ccccc1Cl` (stereo not shown) [CBK200062] the viability at 28.5 h, 10 µM was 113%.

Compound `CC(C)(C)c1ccc(S(=O)(=O)N2CCCC[C@H]2COC(=O)CCC(=O)O)cc1` [CBK200063] has a viability at 28.5 h, 10 µM of 117%.

With `CC(C)(C)c1ccc(S(=O)(=O)N2CCCC[C@H]2COC(=O)COCC(=O)O)cc1` [CBK200064] the viability at 28.5 h, 10 µM was 96.6%.

In the case of `CC(C)(C)c1ccc(S(=O)(=O)N2CCCC[C@H]2CCOC(=O)c2ncccc2C(=O)O)cc1` [CBK200066], the viability at 28.5 h, 10 µM is reported as 98.7%.

In the case of `CC(C)(C)c1ccc(S(=O)(=O)N2CCCC[C@H]2CCOC(=O)/C=C\C(=O)O)cc1` [CBK200069], the viability at 28.5 h, 10 µM is reported as 89.6%.

With `C=C(C)Cn1c(-c2ccccc2C)nnc1S(=O)(=O)CC(C)C` [CBK200074] the viability at 28.5 h, 10 µM was 80%.

Compound `C=C(C)Cn1c(SCC(C)C)nnc1-c1cnccc1C` [CBK200075T] has a viability at 28.5 h, 10 µM of 96%.

Work on `Cc1ccccc1-c1nnc2n1CCCCC2` [CBK200076A] yielded a viability at 28.5 h, 10 µM of 108%.

For `C=C(C)Cn1c(SCC(C)C)nnc1-c1ccccc1F` [CBK200077], the viability at 28.5 h, 10 µM was 107%.

For `Cc1ccccc1-c1nnc(SC(C)C)n1CCNCCO` [CBK200084T], the viability at 28.5 h, 10 µM was 86.9%.

`C=C(C)Cn1c(SCC(C)C)nnc1-c1ccc(F)cc1` [CBK200085] showed a viability at 28.5 h, 10 µM of 99.9%.
